The text below walks through data of patent US12397037B2, “Methods and compositions for immunomodulation” (CHILDREN'S MEDICAL CENTER CORPORATION, priority 2014, dated 2025).

In experiment [1] the test system is glioblastoma cells and EC. The conditions noted are these: reference 12; cited from earlier work.
The subject of the next experiment is VEGF promoter. The experiment in a line: VEGF promoter luciferase assay in U87MG cells. Format: cell-based, human. Particulars: DFO 250 μM, 18 hours. As for the experimental part: FIGS. 31A-31B depict U87MG cells transiently co-transfected with a full-length human VEGF promoter luciferase plasmid and a pGL4.74 [hRluc/TK] plasmid as an internal control. Cells were treated with SEMA3F (640 ng/ml for 30 minutes) prior to the addition of DFO (250 μM) or the culture of cells in a hypoxia chamber (1% 02). After 18 hours, VEGF promoter luciferase activity was analyzed. FIG. 31C depicts a graph of U87MG cells transiently cotransfected with our VEGF promoter luciferase and pGL4.74 [hRluc/TK] plasmids and with either a pcDNA3.1 empty vector or our constitutively active Akt (2DAkt). The cells were treated with SEMA3F for 30 minutes prior to the addition of DFO. After 18 hours, VEGF promoter luciferase activity was analyzed. FIG. 31D depicts a graph of parental U87MG cells treated with SEMA3F, rapamycin (10 nM), Torin 1 (10 nM) alone or in combination as indicated for 30 minutes prior to the addition of DFO, and culture supernatants were collected after 18 hours; VEGF protein levels were analyzed by ELISA. In each panel data are representative of 3 independent experiments. Bar graphs represent the mean±SD of n=3 experiments performed in triplicate, *, p<0.01 vs. control.
SEMA3F inhibits hypoxia-induced production of VEGF via the mTOR pathway. The local expression and regulation of VEGF is key to many physiological and pathological processes (40, 41). These findings indicate that SEMA3F can target the transcriptional activation of VEGF via its ability to target mTOR kinase activity (36, 42). To test the effect of SEMA3F on the regulation of VEGF expression, U87MG cells were transfected with a full-length 2.6 kb VEGF promoter-luciferase construct and exposed to the hypoxia mimetic agent desferrioxamine (DFO) or hypoxia (1% 02). […] To test the relative effect of SEMA3F on mTORC1/C2, U87MG cells transiently co-transfected with the 2DAkt construct and the full length VEGF promoter reporter construct, and the cells cultured in the absence or presence of SEMA3F. […] Finally, the effect of SEMA3F on the secretion of VEGF into conditioned media (by ELISA) was determined in the absence or presence of DFO.
Transfection and Luciferase assay: U87MG cells were transiently transfected with plasmid constructs (pcDNA3.1, WT mTOR, 2DAkt, VEGF luciferase reporter plasmid or pGL4.74 [hRluc/TK]) as indicated using Lipofectamine 2000 reagent (Life Technologies) according to the manufacturer's instructions. After 18 hours, cells were treated as outlined in each experimental design. VEGF promoter activity was analyzed using a Dual-Luciferase Reporter Assay System (Promega), and luciferase activity was normalized by Renilla luciferase as an internal control.

A further experiment has as its system VEGF. The experiment in a line: VEGF protein in conditioned media by ELISA, U87MG cells. Format: cell-based, human.
The test system of another experiment is U87MG cells. Put plainly: Western blot of PI-3K/Akt-mTOR and MAPK signaling in U87MG cells. Particulars: U87MG cells. Format: cell-based, human. The procedure:
U87MG which express NRP-2 were used for this assay.
To determine the effect of SEMA3F on intracellular signaling responses, levels of phosphokinases in the NRP2-expressing human glioblastoma cell line U87MG were profiled.
Western blotting: Proteins within each sample were separated by SDS-PAGE and transferred to nitrocellulose membranes. The membranes were blocked with 4% skimmed milk in TBS-T (0.1% Tween 20 in tris-buffered saline [TBS]) for 30 minutes, followed by incubation with the primary antibody. After washing with TBS-T, membranes were incubated with the appropriate horseradish peroxidase-conjugated secondary antibody, and immunoreactivity was detected by using ECL detection reagents.
For orientation: Immunoblotting shows a protein as a band on a membrane.

[2] abbreviates: rapamycin alone 10 nM for 90 minutes, vs untreated.

Regarding `Cc1ccc(NC(=O)c2ccc(CN3CCN(C)CC3)cc2)cc1Nc1nccc(-c2cccnc2)n1` [Gleevec, imatinib], the “SEMA3-mediated loss of stress fiber formation and motility” value in experiment [1] was “abrogates SEMA3-mediated loss of stress fiber formation and motility”.

On to `CC(=O)N(O)CCCCCNC(=O)CCC(=O)N(O)CCCCCNC(=O)CCC(=O)N(O)CCCCCN` [DFO, desferrioxamine, reference compound], for which the “induction of VEGF promoter activity” value with VEGF promoter is given as 16 fold. Also, the “increase of VEGF production” value in the experiment with VEGF (DFO, compared to untreated cells) is given as 160%. Turning to `CO[C@H]1C[C@@H]2CC[C@@H](C)[C@@](O)(O2)C(=O)C(=O)N2CCCC[C@H]2C(=O)O[C@H]([C@H](C)C[C@@H]2CC[C@@H](O)[C@H](OC)C2)CC(=O)[C@H](C)/C=C(\C)[C@@H](O)[C@@H](OC)C(=O)[C@H](C)C[C@H](C)/C=C/C=C/C=C/1C` [rapamycin, reference compound], in the experiment with U87MG cells (setting [2]), the “induction in the level of pAkt (S473)” value was 2.0 fold and the “induction in the level of pAkt (T308)” value amounted to 1.9 fold. Turning to `CCC(=O)N1CCN(c2ccc(-n3c(=O)ccc4cnc5ccc(-c6cnc7ccccc7c6)cc5c43)cc2C(F)(F)F)CC1` [Torin 1], the “VEGF levels, combination of SEMA3F and Torin 1” value in the experiment with VEGF (DFO, compared to SEMA3F or Torin 1 alone) is listed as “slightly (but significantly p<0.05) inhibited VEGF levels”. For the same compound, in the experiment on VEGF (SEMA3F, rapamycin 10 nM or Torin 1 10 nM, 30 minutes prior to DFO, supernatants after 18 hours), the “DFO-induced VEGF protein secretion” value is listed as “significantly reduced”. Take `N#CC(=C(/N)Sc1ccccc1N)/C(C#N)=C(\N)Sc1ccccc1N` [U0126, reference compound]: the “effect of MEK inhibitor on SEMA3F regulation of pAkt” value with U87MG cells (U0126 10 μM 30 minutes prior to SEMA3F 640 ng/ml) is reported as “did not modulate”.
